Results: ChEMBL document CHEMBL1201862, “PubChem BioAssay data set” (2004)
Calls of active or inactive are those of the source.

Tests used:
[1] = target: Albumin (Bos taurus, UniProt P02769); assay: Counterscreen for inhibitors of T-cell receptor (TCR)-CD3 interaction: Fluorescence-based biochemical high throughput dose response assay to identify inhibitors of T-cell receptor (TCR)-CD3 interaction using a TAMRA-labeled BSA probe.; assay type: functional
[2] = viability loss in HEK293 cells – cell-based, plate reader, cherry-picked samples, cytotoxicity control, dose response (AID 743446); assay type: functional
[3] = toxicity toward HepG2 liver cells – cell-based, plate reader, cherry-pick, antagonist series, cytotoxicity control, dose response (AID 743416); assay type: functional
[4] = blockers of bursicon-stimulated LGR2 cAMP reporter – cell-based, HEK293, CRE-luciferase reporter, cherry pick, set 2, dose response (AID 743343); assay type: functional;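 note: transfected cells were stimulated with diluted bursicon conditioned medium after compound addition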
[5] = blockade of melanocortin 4 receptor signaling – cell-based, plate reader, cherry pick, counter-screen for LGR2 antagonist project, dose response (AID 743444); assay type: functional;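 note: transfected HEK 293 cells stimulated with alpha-MSH peptide; potency of inhibitors of the alpha-MSH evoked signal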
[6] = target: DNA repair and recombination protein RAD54-like (Homo sapiens, UniProt Q92698); assay: RAD54 Holliday junction migration blockers – biochemical, fluorescence, cherry-picked samples, dose series, confirmation (AID 651657); assay type: functional
[7] = target: T1, DNA repair protein RAD52 homolog (Homo sapiens, UniProt P43351); assay type: functional, biochemical
T1 sequence (P43351 whole entry): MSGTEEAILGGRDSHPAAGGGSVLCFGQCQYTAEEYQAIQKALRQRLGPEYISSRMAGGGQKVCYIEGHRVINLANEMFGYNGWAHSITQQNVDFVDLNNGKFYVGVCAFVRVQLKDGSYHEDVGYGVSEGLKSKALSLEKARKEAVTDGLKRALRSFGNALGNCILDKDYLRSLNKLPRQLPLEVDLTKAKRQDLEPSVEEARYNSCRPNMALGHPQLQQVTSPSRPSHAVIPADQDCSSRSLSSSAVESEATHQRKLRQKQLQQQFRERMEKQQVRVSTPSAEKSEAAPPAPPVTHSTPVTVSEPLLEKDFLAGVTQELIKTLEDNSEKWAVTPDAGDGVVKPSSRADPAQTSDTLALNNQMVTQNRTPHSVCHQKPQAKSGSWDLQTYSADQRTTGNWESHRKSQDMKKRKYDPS

[8] = Counterscreen for activators of the function of SWI/SNF related, matrix associated, actin dependent regulator of chromatin, subfamily a, member 2 (SMARCA2, BRM): Luminescence-based cell-based high throughput dose response assay to identify non-selective compounds using the VP16 reporter assay.; assay type: functional
[9] = target: SWI/SNF-related matrix-associated actin-dependent regulator of chromatin subfamily A member 2 (Homo sapiens, UniProt P51531); assay: Luminescence-based cell-based high throughput dose response assay to identify activators of the function of SWI/SNF related, matrix associated, actin dependent regulator of chromatin, subfamily a, member 2 (SMARCA2, BRM).; assay type: functional
[10] = target: Cytochrome P450 2C19 (Homo sapiens, UniProt P33261); assay: Cytochrome panel assay with activity outcomes. Panel member name: p450-cyp2c19 Compounds with AC50 equal or less than 10 uM are considered active; assay type: functional; conditions: read-out: AC50
[11] = target: Cytochrome P450 3A4 (Homo sapiens, UniProt P08684);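 note: CYP3A4 tested as one member of a cytochrome P450 panel screen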
[12] = viability loss in HEK293T cells – cell-based, cherry-picks, cytotoxicity control for HIV Vif inhibitor project, dose response (AID 652208); assay type: functional
[13] = target: T2, Low molecular weight phosphotyrosine protein phosphatase (Homo sapiens, UniProt P24666); assay type: functional; conditions: read-out: IC50_Mean
T2 sequence (P24666 whole entry): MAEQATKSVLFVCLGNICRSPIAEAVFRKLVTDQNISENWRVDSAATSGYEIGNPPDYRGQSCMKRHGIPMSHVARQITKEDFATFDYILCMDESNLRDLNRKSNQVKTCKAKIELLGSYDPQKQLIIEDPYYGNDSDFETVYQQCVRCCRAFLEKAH

[14] = target: T2, Low molecular weight phosphotyrosine protein phosphatase; assay type: functional; conditions: read-out: IC50_Mean; remark: listed apart in the source
[15] = target: Scavenger receptor class B member 1 (Mus musculus, UniProt Q61009); assay: blockers of DiI-HDL lipid transfer via SR-BI – cell-based, ldlA[mSR-BI] CHO, DiI fluorescence, dry powder, set 10, dose response (AID 624029); assay type: functional
Sequence of Scavenger receptor class B member 1 (Q61009 whole entry): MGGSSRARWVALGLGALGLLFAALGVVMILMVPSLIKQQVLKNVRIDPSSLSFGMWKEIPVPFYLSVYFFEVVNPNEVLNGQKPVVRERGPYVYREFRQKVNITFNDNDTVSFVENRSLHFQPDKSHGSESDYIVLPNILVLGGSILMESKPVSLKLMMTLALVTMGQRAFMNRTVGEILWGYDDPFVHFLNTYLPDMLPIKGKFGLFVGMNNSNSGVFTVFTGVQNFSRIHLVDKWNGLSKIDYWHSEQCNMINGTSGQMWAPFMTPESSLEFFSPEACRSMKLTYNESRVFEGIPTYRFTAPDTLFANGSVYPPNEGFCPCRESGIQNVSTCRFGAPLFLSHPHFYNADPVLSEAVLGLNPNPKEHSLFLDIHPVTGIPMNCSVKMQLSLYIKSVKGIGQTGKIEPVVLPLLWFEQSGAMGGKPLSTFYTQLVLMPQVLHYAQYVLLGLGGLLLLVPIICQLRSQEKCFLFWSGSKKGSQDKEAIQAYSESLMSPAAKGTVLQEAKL

[16] = target: Steroidogenic factor 1 (Homo sapiens, UniProt Q13285); assay: Counterscreen for inverse agonists of the liver receptor homolog-1 (LRH-1; NR5A2): Luminescence-based cell-based high throughput dose response assay to identify inverse agonists of the Steroidogenic Factor 1 Nuclear Receptor (SF1; NR5A1).; assay type: functional
[17] = target: Nuclear receptor subfamily 5 group A member 2 (Homo sapiens, UniProt O00482); assay type: functional, cell-based;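 note: HEK293T cells transfected with LRH-1 and a StAR promoter luciferase reporter; potency for inhibitors that lower LRH-1 driven reporter light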
[18] = nonselective StAR promoter luciferase inhibitors – cell-based, luminescence, luciferase reporter, counter-screen for LRH-1 inverse agonist project, dose response (AID 651969); assay type: functional
[19] = target: T3, Fatty acid synthase (Homo sapiens, UniProt P49327); assay: inhibition of human FAS-TE enzyme activity – biochemical, endpoint fluorescence intensity, uHTS hits, dose response (AID 624327); assay type: functional;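 note: fluorescence from hydrolysis of an O-methyl fluorescein acyl ester substrate by the enzyme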
T3 sequence (P49327 whole entry): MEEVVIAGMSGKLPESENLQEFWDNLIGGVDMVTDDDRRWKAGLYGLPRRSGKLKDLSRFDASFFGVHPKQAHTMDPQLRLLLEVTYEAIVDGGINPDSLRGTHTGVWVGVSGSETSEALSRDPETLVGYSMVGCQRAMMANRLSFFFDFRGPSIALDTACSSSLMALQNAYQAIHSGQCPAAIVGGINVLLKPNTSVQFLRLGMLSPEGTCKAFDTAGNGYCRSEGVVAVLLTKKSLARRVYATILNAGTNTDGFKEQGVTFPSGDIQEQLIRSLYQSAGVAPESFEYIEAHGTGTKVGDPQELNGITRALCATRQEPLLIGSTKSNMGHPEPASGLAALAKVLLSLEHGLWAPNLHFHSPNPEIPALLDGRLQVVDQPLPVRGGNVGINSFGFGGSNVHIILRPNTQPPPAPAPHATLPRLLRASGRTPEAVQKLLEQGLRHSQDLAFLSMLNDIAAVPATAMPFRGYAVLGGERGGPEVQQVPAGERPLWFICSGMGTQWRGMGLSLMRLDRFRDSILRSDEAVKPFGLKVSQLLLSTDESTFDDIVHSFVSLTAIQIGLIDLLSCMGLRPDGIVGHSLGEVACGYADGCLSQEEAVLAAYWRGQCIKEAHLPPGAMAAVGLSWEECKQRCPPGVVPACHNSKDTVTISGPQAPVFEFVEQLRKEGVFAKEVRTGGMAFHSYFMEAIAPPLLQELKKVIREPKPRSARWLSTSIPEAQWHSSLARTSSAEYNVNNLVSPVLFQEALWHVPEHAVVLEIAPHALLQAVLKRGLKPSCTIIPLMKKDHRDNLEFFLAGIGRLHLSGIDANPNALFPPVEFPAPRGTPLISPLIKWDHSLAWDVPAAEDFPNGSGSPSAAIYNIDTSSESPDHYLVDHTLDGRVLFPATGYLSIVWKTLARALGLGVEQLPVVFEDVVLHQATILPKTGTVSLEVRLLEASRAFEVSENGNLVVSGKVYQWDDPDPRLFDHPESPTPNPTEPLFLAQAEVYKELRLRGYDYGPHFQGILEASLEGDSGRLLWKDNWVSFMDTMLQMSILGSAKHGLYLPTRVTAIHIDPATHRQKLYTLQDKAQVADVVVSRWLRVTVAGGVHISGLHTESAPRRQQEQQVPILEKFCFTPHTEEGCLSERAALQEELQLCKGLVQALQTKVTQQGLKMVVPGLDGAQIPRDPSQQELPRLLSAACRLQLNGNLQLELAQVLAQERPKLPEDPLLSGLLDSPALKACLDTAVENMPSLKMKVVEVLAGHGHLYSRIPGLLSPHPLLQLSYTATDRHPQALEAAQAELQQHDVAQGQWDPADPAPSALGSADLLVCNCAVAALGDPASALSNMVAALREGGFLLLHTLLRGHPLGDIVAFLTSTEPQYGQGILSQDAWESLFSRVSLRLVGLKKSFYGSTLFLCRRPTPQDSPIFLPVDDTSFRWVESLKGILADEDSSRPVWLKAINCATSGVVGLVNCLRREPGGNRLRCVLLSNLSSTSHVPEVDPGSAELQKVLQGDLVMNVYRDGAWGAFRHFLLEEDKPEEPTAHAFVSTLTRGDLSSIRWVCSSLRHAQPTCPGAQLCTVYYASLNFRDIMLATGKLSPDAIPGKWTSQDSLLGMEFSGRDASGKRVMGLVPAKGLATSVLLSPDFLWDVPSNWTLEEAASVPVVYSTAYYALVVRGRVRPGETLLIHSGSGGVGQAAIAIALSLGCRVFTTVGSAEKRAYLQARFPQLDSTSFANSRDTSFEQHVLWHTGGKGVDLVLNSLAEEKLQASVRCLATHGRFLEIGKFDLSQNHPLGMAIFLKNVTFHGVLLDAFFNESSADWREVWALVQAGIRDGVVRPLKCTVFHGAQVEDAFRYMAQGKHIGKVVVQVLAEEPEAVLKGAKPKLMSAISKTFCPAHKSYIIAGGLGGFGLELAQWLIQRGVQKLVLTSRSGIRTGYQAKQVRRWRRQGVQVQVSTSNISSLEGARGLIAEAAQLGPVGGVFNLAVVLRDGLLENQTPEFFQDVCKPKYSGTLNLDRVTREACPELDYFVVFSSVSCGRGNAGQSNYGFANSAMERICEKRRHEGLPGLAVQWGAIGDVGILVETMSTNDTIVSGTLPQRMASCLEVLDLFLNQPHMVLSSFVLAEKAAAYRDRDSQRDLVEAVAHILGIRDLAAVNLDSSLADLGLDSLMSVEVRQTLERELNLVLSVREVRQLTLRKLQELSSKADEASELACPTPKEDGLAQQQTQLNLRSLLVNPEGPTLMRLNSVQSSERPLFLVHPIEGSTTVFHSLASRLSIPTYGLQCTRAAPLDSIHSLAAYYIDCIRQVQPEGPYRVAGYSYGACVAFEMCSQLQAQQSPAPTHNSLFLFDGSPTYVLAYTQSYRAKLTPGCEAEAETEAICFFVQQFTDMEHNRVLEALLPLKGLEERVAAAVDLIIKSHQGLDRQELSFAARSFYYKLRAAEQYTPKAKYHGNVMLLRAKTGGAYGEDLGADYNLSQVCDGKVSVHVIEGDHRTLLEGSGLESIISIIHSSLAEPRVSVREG

[20] = target: Genome polyprotein (dengue virus type 2, UniProt P29990); assay: flavivirus cap methylation enzyme inhibition – biochemical, confirmation dose response, primary screen (AID 588689); assay type: functional
Sequence of Genome polyprotein (P29990 2492-3391 limits assumed): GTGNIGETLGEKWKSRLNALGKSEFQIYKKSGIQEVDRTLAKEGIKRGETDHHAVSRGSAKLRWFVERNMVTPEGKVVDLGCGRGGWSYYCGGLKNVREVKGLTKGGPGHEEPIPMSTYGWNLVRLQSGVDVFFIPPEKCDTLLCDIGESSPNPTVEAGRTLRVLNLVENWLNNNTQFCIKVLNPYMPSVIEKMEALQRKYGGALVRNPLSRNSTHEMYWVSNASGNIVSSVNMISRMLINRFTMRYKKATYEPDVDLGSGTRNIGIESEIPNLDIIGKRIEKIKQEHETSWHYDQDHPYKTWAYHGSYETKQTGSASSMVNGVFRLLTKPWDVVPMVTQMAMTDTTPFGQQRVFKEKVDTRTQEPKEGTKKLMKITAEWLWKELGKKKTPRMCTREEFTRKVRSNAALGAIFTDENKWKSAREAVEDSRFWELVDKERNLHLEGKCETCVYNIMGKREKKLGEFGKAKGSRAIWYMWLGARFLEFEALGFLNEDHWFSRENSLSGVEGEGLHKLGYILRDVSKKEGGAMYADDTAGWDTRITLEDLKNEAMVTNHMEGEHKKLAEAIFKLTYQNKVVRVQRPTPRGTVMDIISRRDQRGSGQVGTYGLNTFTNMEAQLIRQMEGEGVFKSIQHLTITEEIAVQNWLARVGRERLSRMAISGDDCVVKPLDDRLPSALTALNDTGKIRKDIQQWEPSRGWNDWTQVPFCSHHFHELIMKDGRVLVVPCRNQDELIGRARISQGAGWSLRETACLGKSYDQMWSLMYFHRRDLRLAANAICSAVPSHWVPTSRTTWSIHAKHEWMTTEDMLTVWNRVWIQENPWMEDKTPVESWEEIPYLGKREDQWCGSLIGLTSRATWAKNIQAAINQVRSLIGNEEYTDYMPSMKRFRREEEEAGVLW

[21] = target: T3, Fatty acid synthase; assay: inhibition of human FAS-TE enzyme activity – biochemical, kinetic fluorescence intensity, dose response (AID 624326); assay type: functional;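 note: rate of fluorescence rise from hydrolysis of a fluorogenic O-methyl fluorescein ester substrate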
[22] = target: Mitochondrial peptide methionine sulfoxide reductase (Bos taurus, UniProt P54149); assay type: functional;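 note: absorbance read-out, biochemical high-throughput dose-response screen for MsrA inhibitors, confirmatory; recombinant bovine MsrA coupled to E. coli TrxB with NADPH and selenocystamine; potency is for inhibitors of MsrA activity on DMSO substrate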
[23] = target: T4, Rac GTPase-activating protein 1 (Homo sapiens, UniProt Q9H0H5); assay: blockers of MgcRacGAP-driven Rac1 GTP hydrolysis – biochemical, ADP Hunter fluorescence, primary and confirmatory, confirmation (AID 624330); assay type: functional
T4 sequence (Q9H0H5 whole entry): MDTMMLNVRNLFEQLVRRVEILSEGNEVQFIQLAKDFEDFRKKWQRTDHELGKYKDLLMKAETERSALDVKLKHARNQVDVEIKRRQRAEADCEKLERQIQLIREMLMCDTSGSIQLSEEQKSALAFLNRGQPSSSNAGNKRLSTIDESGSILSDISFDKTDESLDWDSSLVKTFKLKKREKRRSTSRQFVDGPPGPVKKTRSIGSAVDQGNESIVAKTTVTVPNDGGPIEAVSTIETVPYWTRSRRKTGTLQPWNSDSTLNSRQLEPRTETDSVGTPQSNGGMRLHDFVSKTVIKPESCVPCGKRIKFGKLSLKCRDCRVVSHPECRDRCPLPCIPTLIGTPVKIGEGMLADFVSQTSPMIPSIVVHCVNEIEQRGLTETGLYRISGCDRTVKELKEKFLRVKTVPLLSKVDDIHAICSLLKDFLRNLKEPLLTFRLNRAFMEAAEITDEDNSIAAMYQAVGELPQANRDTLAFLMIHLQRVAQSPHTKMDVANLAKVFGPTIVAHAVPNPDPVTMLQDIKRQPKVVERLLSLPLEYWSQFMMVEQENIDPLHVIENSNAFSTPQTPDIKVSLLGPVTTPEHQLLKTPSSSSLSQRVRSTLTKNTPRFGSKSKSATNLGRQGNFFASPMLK

[24] = target: T5, Sentrin-specific protease 1 (Homo sapiens, UniProt Q9P0U3); assay: Dose response confirmation of small molecule inhibitors of the catalytic domain of the SUMO protease, SENP1 in a FRET assay.; assay type: functional; conditions: read-out: IC50_Mean
T5 sequence (Q9P0U3 whole entry, the tested form may be a part): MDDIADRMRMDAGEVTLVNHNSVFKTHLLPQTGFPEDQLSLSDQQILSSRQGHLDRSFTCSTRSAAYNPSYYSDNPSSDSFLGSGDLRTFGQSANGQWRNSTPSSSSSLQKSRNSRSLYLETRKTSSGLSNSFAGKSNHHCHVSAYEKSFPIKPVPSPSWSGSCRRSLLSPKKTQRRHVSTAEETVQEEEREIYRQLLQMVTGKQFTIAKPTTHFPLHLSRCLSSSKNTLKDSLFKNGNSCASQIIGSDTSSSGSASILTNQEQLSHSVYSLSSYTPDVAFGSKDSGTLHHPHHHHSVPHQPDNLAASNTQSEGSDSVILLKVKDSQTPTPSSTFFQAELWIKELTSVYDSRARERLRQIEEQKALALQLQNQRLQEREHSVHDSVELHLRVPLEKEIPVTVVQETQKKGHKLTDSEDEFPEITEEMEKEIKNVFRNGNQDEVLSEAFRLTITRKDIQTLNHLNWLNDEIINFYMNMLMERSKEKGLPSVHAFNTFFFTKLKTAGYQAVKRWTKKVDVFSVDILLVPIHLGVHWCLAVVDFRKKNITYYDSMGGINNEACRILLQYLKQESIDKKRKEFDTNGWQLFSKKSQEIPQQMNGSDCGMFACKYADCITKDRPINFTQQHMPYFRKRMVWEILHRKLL

[25] = target: T5, Sentrin-specific protease 1; assay: SENP1 catalytic domain blockers, concentration series – biochemical, kinetic FRET, dose response (AID 651697); assay type: functional; conditions: read-out: IC50_Mean
[26] = target: T6, Corticotropin-releasing factor receptor 2/Corticotropin-releasing factor-binding protein (Homo sapiens, UniProt P24387+Q13324); assay: activators of CRF receptor 2 with binding protein – uHTS hits, confirmation (AID 602473); assay type: functional; conditions: read-out: EC50_Mean
T6 sequence (Q13324 whole entry): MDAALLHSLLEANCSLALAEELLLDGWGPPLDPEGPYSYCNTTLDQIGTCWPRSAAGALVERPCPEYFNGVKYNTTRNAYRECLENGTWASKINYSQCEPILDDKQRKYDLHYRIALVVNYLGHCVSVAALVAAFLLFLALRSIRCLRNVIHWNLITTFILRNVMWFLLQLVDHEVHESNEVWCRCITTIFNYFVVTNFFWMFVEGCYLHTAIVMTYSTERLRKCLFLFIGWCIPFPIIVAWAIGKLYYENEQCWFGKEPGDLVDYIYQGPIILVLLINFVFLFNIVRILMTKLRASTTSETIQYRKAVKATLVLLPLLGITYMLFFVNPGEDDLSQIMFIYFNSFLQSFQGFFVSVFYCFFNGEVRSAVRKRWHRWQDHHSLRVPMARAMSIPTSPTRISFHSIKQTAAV
T6 sequence (P24387 whole entry): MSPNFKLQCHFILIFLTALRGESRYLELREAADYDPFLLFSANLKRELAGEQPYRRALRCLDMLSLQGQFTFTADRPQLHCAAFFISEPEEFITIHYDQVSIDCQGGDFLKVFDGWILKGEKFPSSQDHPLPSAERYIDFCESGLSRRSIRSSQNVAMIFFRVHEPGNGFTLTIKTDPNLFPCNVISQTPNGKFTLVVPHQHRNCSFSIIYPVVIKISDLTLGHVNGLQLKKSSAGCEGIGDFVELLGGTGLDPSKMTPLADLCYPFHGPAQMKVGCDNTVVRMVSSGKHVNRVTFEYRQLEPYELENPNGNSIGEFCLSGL

[27] = target: T6, Corticotropin-releasing factor receptor 2/Corticotropin-releasing factor-binding protein; assay: Dose Response confirmation of uHTS hits for small molecule antagonists of the CRF-binding protein and CRF-R2 receptor complex.; assay type: functional; conditions: read-out: IC50_Mean
[28] = target: Hepatocyte nuclear factor 4-alpha (Homo sapiens, UniProt P41235); assay type: functional, cell-based;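 note: biochemical luminescence-based dose-response counterscreen measuring inhibition of HNF4 dimerization, run alongside a screen for blockers of ABHD5–perilipin-5 interaction; split luciferase complementation of HNF4 fusion proteins in cell lysate measuring dimerization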
[29] = anti-trypanosomal activity in BESM host cells – imaging, CA-I/72 strain, bovine embryo skeletal muscle, dry powder, dose response (AID 651885); assay type: functional, cell-based
[30] = T. cruzi growth inhibition in host cells, dose response, cell-based, plate reader, dry powder, set 2 (AID 652275); assay type: functional
[31] = target: Protein Wnt-3a (Mus musculus, UniProt P27467); assay: SAR analysis of small molecule antagonists of Gli-SUFU in a Wnt3a luminescent reporter assay.; assay type: functional
Sequence of Protein Wnt-3a (P27467 whole entry): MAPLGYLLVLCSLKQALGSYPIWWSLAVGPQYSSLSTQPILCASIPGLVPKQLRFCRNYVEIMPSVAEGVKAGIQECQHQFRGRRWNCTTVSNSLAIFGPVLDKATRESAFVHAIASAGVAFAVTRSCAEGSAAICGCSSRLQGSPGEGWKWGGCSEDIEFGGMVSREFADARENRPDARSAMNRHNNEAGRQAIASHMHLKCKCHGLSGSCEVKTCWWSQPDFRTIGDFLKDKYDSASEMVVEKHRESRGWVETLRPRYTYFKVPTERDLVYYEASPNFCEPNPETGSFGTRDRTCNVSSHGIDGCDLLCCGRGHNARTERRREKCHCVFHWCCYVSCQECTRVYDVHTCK

Q: Which IC50 [1] does the source give for `NNC(=O)c1[nH]cnc1C(=O)Nc1ccccn1` here?
A: Its IC50 is > 94.2 µM (inactive).

Q: For `O=C(NC1(Cc2ccccc2)CCN(Cc2ccc(-c3ccccc3)cc2)C1=O)c1ccccc1` (stereo unspecified), which AC50 [2] is on record?
A: The AC50 was > 52 µM (inactive).

Q: What about the AC50 [3] of the same compound?
A: The AC50 was > 52 µM (inactive).

Q: And the AC50 [4]?
A: Its AC50 is 5.14 µM (active).

Q: What about the AC50 [5] of the same compound?
A: Its AC50 is 10.1 µM (active).

Q: With `Cc1ccc(-c2nc(NCCN(C)C)c3ccccc3n2)cc1` as the compound, how does the AC50 [6] read?
A: The AC50 was 12.6 µM (active).

Q: And the AC50 [7]?
A: The AC50 was 8.93 µM (active).

Q: And the EC50 [8]?
A: The EC50 was > 91.2 µM (inactive).

Q: And the EC50 [9]?
A: Its EC50 is 37.1 µM (inactive).

Q: For `COC(=O)c1ccc(Oc2coc3cc(OCc4cnn(-c5ccccc5)c4)ccc3c2=O)cc1`, which AC50 [10] is on record?
A: The AC50 was 0.708 µM (inconclusive).

Q: What about the AC50 [11] of the same compound?
A: Its AC50 is “inconclusive”.

Q: What about the AC50 [12] of the same compound?
A: The AC50 was 38.3 µM (active).

Q: What does the source list for `CCOCCCNc1nc(-c2ccccc2)nc2ccccc12`?
A: IC50 [13]: 21.1 µM (inactive); IC50 [14]: 12.3 µM (active)

Q: Which AC50 [15] does the source give for `Cc1ccc(OCc2cc(C(=O)N3CCCC(O)C3)no2)cn1` (stereo unspecified) here?
A: Its AC50 is 61 µM (active).

Q: With `CCn1cc(Br)c(C(=O)Nc2ccccc2C(=O)OC)n1` as the compound, how does the IC50 [16] read?
A: The IC50 was 10.5 µM (inactive).

Q: What about the IC50 [17] of the same compound?
A: The IC50 was 35.9 µM (inactive).

Q: And the IC50 [18]?
A: The IC50 was 35.9 µM (inactive).

Q: For `CSc1nc(N)c(N=Nc2ccc([As](=O)(O)O)cc2)c(O)n1`, which IC50 [19] is on record?
A: Its IC50 is 11.4 µM (active).

Q: What about the IC50 [20] of the same compound?
A: Its IC50 is 57.3 µM (active).

Q: What about the IC50 [21] of the same compound?
A: Its IC50 is 4.99 µM (active).

Q: And the IC50 [22]?
A: Its IC50 is 9.91 µM (active).

Q: And the IC50 [23]?
A: Its IC50 is 39.9 µM (active).

Q: With `C=CCNC(=O)c1cccc2c1C(=O)c1ccc(N3CCOCC3)cc1S2(=O)=O` as the compound, how does the IC50 [24] read?
A: Its IC50 is 13.2 µM (active).

Q: And the IC50 [25]?
A: The IC50 was 13.9 µM (active).

Q: And the EC50 [26]?
A: The EC50 was > 53 µM (inactive).

Q: What about the IC50 [27] of the same compound?
A: Its IC50 is > 47.1 µM (inactive).

Q: For `CC(c1nc2ccccc2[nH]1)n1c(=O)c(-c2ccco2)nc2ccccc21` (stereo unspecified), which IC50 [28] is on record?
A: Its IC50 is 2.93 µM (active).

Q: For `Cc1cc(C(=O)Nc2cccc3c2O[C@@H](CN(C)Cc2ccc(Oc4ccccc4)cc2)[C@H](C)CN([C@@H](C)CO)C3=O)n(C)n1`, which IC50 [29] is on record?
A: The IC50 was > 20 µM (inactive).

Q: What about the AC50 [30] of the same compound?
A: Its AC50 is 1.28 µM (active).

Q: With `O=C(Nc1cc(N2CCCCC2)ncn1)c1ccc2ccccc2c1` as the compound, how does the IC50 [31] read?
A: Its IC50 is > 21.8 µM (inactive).
